Experimental data taken from patent US20090298781A1, “COMPOUNDS FOR THE INHIBITION OF APOPTOSIS” (CONSEJO SUPERIOR DE, priority 2005, published 2009).
pIC50: −log10 of the molar value. Non-standard residues stand in square brackets, D forms with d. Residues, ends and D or L forms follow the SMILES beside them. *: point of attachment. X1 = O=C1CC(C(=O)*)N(CCC(c2ccccc2)c2ccccc2)C(=O)CN1CCc1ccc(Cl)cc1Cl; N(2,4-Cl2-phenethyl)Gly = O=C(O)CNCCc1ccc(Cl)cc1Cl

Target: T1, recombinant Apaf-1 (Homo sapiens, UniProt O14727)
T1 construct: made in house
T1 sequence (O14727 1-1248): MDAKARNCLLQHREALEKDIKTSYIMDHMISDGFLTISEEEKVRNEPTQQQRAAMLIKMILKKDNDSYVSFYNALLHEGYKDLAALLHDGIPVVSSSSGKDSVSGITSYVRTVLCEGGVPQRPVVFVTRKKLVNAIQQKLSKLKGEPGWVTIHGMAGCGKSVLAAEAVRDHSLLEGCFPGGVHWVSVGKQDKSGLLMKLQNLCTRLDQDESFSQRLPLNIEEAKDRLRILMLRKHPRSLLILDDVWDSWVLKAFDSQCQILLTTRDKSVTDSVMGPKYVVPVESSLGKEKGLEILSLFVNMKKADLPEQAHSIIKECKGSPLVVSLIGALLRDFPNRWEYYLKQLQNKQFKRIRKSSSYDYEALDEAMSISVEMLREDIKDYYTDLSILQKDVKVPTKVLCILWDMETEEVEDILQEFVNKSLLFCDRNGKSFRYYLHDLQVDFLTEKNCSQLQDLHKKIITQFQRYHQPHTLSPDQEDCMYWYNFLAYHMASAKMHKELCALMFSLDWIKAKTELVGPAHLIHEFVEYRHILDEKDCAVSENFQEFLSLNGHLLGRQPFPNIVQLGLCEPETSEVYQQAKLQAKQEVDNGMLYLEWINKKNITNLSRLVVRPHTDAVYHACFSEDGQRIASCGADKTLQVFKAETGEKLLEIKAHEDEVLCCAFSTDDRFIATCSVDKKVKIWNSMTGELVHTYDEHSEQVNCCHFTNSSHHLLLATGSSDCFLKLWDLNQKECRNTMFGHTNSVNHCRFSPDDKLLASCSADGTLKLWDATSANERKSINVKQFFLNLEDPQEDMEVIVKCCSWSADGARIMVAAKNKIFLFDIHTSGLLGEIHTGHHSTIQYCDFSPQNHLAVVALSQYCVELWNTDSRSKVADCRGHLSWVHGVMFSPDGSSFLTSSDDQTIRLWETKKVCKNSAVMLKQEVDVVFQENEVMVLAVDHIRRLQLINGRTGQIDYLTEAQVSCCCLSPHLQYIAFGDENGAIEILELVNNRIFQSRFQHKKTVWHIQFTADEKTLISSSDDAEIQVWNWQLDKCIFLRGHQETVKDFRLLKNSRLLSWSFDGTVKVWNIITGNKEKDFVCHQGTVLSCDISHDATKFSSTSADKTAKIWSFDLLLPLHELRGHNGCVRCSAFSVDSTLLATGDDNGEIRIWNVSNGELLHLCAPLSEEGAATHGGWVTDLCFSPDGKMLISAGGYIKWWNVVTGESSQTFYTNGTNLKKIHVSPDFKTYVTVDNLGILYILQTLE
Test: Cell-free caspase inhibition assay, Hek-293 FT cytoplasmatic fraction with recombinant Apaf-1
Assay type: biochemical
Settings: Hek-293 FT fraction + recombinant Apaf-1 (FIG. 1), read-out: IC50, concentration needed to inhibit 50% of caspase activity
Experimental: The activity of the compounds regards their specific target within the apoptotic machinery was assessed. Apaf-1 oligomerisation is a molecular event that leads to the activation of the apoptosome formation, which ends up in the induction of apoptosis. These experiments were performed in cell-free and in cellular assays.
For the cell-free assays, Hek-293 cytoplasmatic extracts were prepared as described before (Malet et al, 2005) and a partitioning of the complete cell extract was carried out. Concomitantly, recombinant Apaf-1 was purified according to Malet et al, 2005. The FT fraction (containing caspase-3 and -9 but lacking Apaf-1), was incubated with recombinant Apaf-1 in the presence of different concentrations of the compounds (see FIG. 1). The activity of the compounds was analysed by the inhibition of caspase activity (see above).
FIG. 1: Cell-free caspase inhibition assay using Hek-293 FT cytoplasmatic fraction incubated with recombinant Apaf-1 in the presence of different concentrations the compound IIa.1.

## NCCCC[C@H](NC(=O)CNC(=O)CNC(=O)CN(CCc1ccc(Cl)cc1Cl)C(=O)C1CC(=O)N(CCc2ccc(Cl)cc2Cl)CC(=O)N1CCC(c1ccccc1)c1ccccc1)C(N)=O (stereo partly shown) [IIa.1, 1-[2-(2,4-Dichlorophenyl)ethyl]-3-(3,3-diphenyl-propyl)-3,7-dioxo[1,4]diazepane-5-carboxylic acid {[({[(5-amino-1-carbamoylpentylcarbamoyl)methyl]-carbamoyl}methyl)carbamoyl]methyl}-[2-(2,4-dichlorophenyl)ethyl]amide] (X1-[N(2,4-Cl2-phenethyl)Gly]GGK-NH2)
  pIC50: ~4.52
